# Measurements published in patent US5807535A, “Metal complexes of hydroxyaryl containing aminocarboxylic acid chelating agents” (Australian Nuclear Science & Technology Organisation, priority 1992, dated 1998).
# Where two headings read alike, the source gives them in different places.
# Assays:
# [1] = Biodistribution of 99mTc complexes in rats; format: in vivo, Australian Albino Wistar Rats; conditions: rat, rats; for tissue uptake at 0.5 min: 30 sec; for tissue uptake at 0.05 h: 3 min
# Protocol: A typical method of radiolabelling of the chelator was achieved by dissolving the chelator in a basic solution of saline. The pH was then adjusted to approx. 6 with HCl. Excess stannous chloride was added to the resultant solution followed by one equivalent volume of sodium ^99m TcO4 (10-50 mCi/ml). Final concentration of the chelator was approx. 1 mg/ml. The efficacy of labelling was determined by ITLC-SG. For each product only one main radiochemical species was observed. Each complex was diluted to 15 μCi/100 μl with saline. […] (See FIGS. 1A and 1B).
# Selected data from biodistribution results of technetium-99m complexes of No. 1, No. 2 and No 4 in the liver, kidney and blood at 3 minutes is tabulated below.
# [2] = Effect of pH on radiolabelling ligand (5) with 64/67Cu; format: physicochemical
# Protocol: Radiolabelling with ^64/67 Cu was investigated with ligand (5) over a range of pHs (see Table B). Conditions employed are similar to that reported above for where the ^64/67 Cu in appropriate buffer was added directly to a buffered solution of ligand (5). Rate and percent of complexation was monitored over time by ITLC-SG. Mobile phase employed was methanol:water:ammonia (9:1: trace amounts). The copper complex moves with the solvent front while the free copper is retained at the origin.
# [3] = blood, read-out: biodistribution blood
# [4] = bone, read-out: biodistribution bone
# [5] = brain, read-out: biodistribution brain
# [6] = eyes, read-out: biodistribution eyes
# [7] = heart, read-out: biodistribution heart
# [8] = kidneys, read-out: biodistribution kidneys
# [9] = liver, read-out: biodistribution liver
# [10] = lungs, read-out: biodistribution lungs
# [11] = muscle, read-out: biodistribution muscle
# [12] = pancreas, read-out: biodistribution pancreas
# [13] = skin, read-out: biodistribution skin
# [14] = spleen, read-out: biodistribution spleen
# [15] = stomach, read-out: biodistribution stomach
# [16] = tail, read-out: biodistribution tail
# [17] = thymus, read-out: biodistribution thymus
# [18] = thyroid, read-out: biodistribution thyroid
# [19] = total git, read-out: biodistribution tot GIT
compound,measurement,setting,value
Nc1ccc(O)c(NC(=O)CN(CCN(CC(=O)O)CC(=O)Nc2cc(N)ccc2O)CC(=O)O)c1 [Compound 5],tissue uptake at 0.5 min,[1]; [3],4.92 %ID/g
same,tissue uptake at 1 min,[1]; [3],4.22 %ID/g
same,tissue uptake at 0.05 h,[1]; [3],3.26 %ID/g
same,tissue uptake at 5 min,[1]; [3],3.13 %ID/g
same,tissue uptake at 10 min,[1]; [3],2.59 %ID/g
same,tissue uptake at 0.5 min,[1]; [4],0.37 %ID/g
same,tissue uptake at 1 min,[1]; [4],0.45 %ID/g
same,tissue uptake at 0.05 h,[1]; [4],0.42 %ID/g
same,tissue uptake at 5 min,[1]; [4],0.37 %ID/g
same,tissue uptake at 10 min,[1]; [4],0.36 %ID/g
same,tissue uptake at 0.5 min,[1]; [5],0.2 %ID/g
same,tissue uptake at 1 min,[1]; [5],0.22 %ID/g
same,tissue uptake at 0.05 h,[1]; [5],0.16 %ID/g
same,tissue uptake at 5 min,[1]; [5],0.17 %ID/g
same,tissue uptake at 10 min,[1]; [5],0.14 %ID/g
same,tissue uptake at 0.5 min,[1]; [6],0.17 %ID/g
same,tissue uptake at 1 min,[1]; [6],0.23 %ID/g
same,tissue uptake at 0.05 h,[1]; [6],0.19 %ID/g
same,tissue uptake at 5 min,[1]; [6],0.18 %ID/g
same,tissue uptake at 10 min,[1]; [6],0.18 %ID/g
same,tissue uptake at 0.5 min,[1]; [7],1.81 %ID/g
same,tissue uptake at 1 min,[1]; [7],1.62 %ID/g
same,tissue uptake at 0.05 h,[1]; [7],1.24 %ID/g
same,tissue uptake at 5 min,[1]; [7],1.15 %ID/g
same,tissue uptake at 10 min,[1]; [7],1.06 %ID/g
same,tissue uptake at 0.5 min,[1]; [8],4.35 %ID/g
same,tissue uptake at 1 min,[1]; [8],5.7 %ID/g
same,tissue uptake at 0.05 h,[1]; [8],4.7 %ID/g
same,tissue uptake at 5 min,[1]; [8],6.04 %ID/g
same,tissue uptake at 10 min,[1]; [8],3.61 %ID/g
same,tissue uptake at 0.5 min,[1]; [9],1.11 %ID/g
same,tissue uptake at 1 min,[1]; [9],0.97 %ID/g
same,tissue uptake at 0.05 h,[1]; [9],0.83 %ID/g
same,tissue uptake at 5 min,[1]; [9],0.79 %ID/g
same,tissue uptake at 10 min,[1]; [9],0.69 %ID/g
same,tissue uptake at 0.5 min,[1]; [10],1.66 %ID/g
same,tissue uptake at 1 min,[1]; [10],1.69 %ID/g
same,tissue uptake at 0.05 h,[1]; [10],1.31 %ID/g
same,tissue uptake at 5 min,[1]; [10],1.25 %ID/g
same,tissue uptake at 10 min,[1]; [10],1.17 %ID/g
same,tissue uptake at 0.5 min,[1]; [11],0.25 %ID/g
same,tissue uptake at 1 min,[1]; [11],0.3 %ID/g
same,tissue uptake at 0.05 h,[1]; [11],0.27 %ID/g
same,tissue uptake at 5 min,[1]; [11],0.25 %ID/g
same,tissue uptake at 10 min,[1]; [11],0.23 %ID/g
same,tissue uptake at 0.5 min,[1]; [12],0.8 %ID/g
same,tissue uptake at 1 min,[1]; [12],0.73 %ID/g
same,tissue uptake at 0.05 h,[1]; [12],0.55 %ID/g
same,tissue uptake at 5 min,[1]; [12],0.56 %ID/g
same,tissue uptake at 10 min,[1]; [12],0.43 %ID/g
same,tissue uptake at 0.5 min,[1]; [13],0.31 %ID/g
same,tissue uptake at 1 min,[1]; [13],0.38 %ID/g
same,tissue uptake at 0.05 h,[1]; [13],0.43 %ID/g
same,tissue uptake at 5 min,[1]; [13],0.41 %ID/g
same,tissue uptake at 10 min,[1]; [13],0.46 %ID/g
same,tissue uptake at 0.5 min,[1]; [14],0.83 %ID/g
same,tissue uptake at 1 min,[1]; [14],0.98 %ID/g
same,tissue uptake at 0.05 h,[1]; [14],0.83 %ID/g
same,tissue uptake at 5 min,[1]; [14],0.83 %ID/g
same,tissue uptake at 10 min,[1]; [14],0.72 %ID/g
same,tissue uptake at 0.5 min,[1]; [15],0.47 %ID/g
same,tissue uptake at 1 min,[1]; [15],0.42 %ID/g
same,tissue uptake at 0.05 h,[1]; [15],0.36 %ID/g
same,tissue uptake at 5 min,[1]; [15],0.37 %ID/g
same,tissue uptake at 10 min,[1]; [15],0.24 %ID/g
same,tissue uptake at 0.5 min,[1]; [16],0.22 %ID/g
same,tissue uptake at 1 min,[1]; [16],0.14 %ID/g
same,tissue uptake at 0.05 h,[1]; [16],0.17 %ID/g
same,tissue uptake at 5 min,[1]; [16],0.15 %ID/g
same,tissue uptake at 10 min,[1]; [16],0.19 %ID/g
same,tissue uptake at 0.5 min,[1]; [17],0.63 %ID/g
same,tissue uptake at 1 min,[1]; [17],0.56 %ID/g
same,tissue uptake at 0.05 h,[1]; [17],0.45 %ID/g
same,tissue uptake at 5 min,[1]; [17],0.54 %ID/g
same,tissue uptake at 10 min,[1]; [17],0.39 %ID/g
same,tissue uptake at 0.5 min,[1]; [18],1.85 %ID/g
same,tissue uptake at 1 min,[1]; [18],2.43 %ID/g
same,tissue uptake at 0.05 h,[1]; [18],1.59 %ID/g
same,tissue uptake at 5 min,[1]; [18],1.73 %ID/g
same,tissue uptake at 10 min,[1]; [18],1.71 %ID/g
same,tissue uptake at 0.5 min,[1]; [19],0.35 %ID/g
same,tissue uptake at 1 min,[1]; [19],0.34 %ID/g
same,tissue uptake at 0.05 h,[1]; [19],0.31 %ID/g
same,tissue uptake at 5 min,[1]; [19],0.29 %ID/g
same,tissue uptake at 10 min,[1]; [19],0.27 %ID/g
same,rate of complexation,[2]; all pHs (pH 3.0-10.0),complete within the first minute
same,complexation maintained for upto,[2]; pH 3.0-10.0,≤ 2 h
